Patent US20080171783A1, “COMPOSITIONS AND METHODS FOR TREATING HYPERPROLIFERATIVE DISEASE” (Migenix Inc., priority 2006, published 2008)

Assays:
[1] = biological target: T1, Calf polymerase alpha (Bos taurus, UniProt A0AAA9TD94); assay: Calf polymerase alpha inhibition (Replizyme kit); type: biochemical; conditions: for IC50: dose response; for inhibition at 10 µM: single point screening
T1 construct: purchased Replizyme Ltd (Heslington, York, UK)
T1 sequence (A0AAA9TD94 1-1441): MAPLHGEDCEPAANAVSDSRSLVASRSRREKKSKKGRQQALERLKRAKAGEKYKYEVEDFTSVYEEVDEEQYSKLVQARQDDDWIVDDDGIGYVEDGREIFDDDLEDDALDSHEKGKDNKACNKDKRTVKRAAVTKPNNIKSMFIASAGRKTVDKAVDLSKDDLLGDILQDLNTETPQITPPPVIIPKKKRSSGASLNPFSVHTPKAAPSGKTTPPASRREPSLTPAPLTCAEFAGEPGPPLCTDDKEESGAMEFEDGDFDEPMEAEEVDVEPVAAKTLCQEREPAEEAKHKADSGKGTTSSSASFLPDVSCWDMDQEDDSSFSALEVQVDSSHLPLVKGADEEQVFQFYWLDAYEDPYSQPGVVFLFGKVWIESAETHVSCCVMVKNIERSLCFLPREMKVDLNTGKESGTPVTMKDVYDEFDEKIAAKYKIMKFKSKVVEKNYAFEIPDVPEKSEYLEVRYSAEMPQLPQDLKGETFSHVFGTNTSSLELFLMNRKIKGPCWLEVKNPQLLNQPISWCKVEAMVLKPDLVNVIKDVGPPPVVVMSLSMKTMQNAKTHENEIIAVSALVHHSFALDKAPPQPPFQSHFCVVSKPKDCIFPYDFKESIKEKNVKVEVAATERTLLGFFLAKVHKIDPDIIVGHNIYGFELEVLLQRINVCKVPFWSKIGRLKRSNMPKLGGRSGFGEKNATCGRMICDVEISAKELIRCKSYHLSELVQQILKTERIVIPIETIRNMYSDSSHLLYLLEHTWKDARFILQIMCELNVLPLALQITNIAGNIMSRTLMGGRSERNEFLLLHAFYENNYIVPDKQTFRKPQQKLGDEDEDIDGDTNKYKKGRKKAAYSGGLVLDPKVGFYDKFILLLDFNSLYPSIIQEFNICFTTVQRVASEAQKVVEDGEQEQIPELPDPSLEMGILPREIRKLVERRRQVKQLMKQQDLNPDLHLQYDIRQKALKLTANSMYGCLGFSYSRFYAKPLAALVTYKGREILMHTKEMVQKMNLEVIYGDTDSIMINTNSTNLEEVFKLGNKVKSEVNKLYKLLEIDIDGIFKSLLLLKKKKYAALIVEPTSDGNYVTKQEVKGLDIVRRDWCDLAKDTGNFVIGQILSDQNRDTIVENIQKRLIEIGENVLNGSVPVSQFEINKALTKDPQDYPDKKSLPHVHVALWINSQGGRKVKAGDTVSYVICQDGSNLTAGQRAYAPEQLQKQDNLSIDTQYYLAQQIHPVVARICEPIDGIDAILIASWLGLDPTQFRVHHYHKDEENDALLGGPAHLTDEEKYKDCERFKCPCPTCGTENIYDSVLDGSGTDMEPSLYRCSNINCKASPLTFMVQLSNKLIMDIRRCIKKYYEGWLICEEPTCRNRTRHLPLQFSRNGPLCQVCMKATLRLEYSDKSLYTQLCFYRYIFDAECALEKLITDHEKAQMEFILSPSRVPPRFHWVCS
Protocol: Calf polymerase alpha and human polymerase alpha investigations were performed with a kit available from Replizyme Ltd (Heslington, York, UK).

[2] = Cytotoxicity Huh-7 cells (MTS/PMS); type: cell-based; conditions: human, 3-day incubation
Protocol: Cytotoxicity of compounds for use in treating hyperproliferative diseases or disorders was tested in Huh-7 cells using tetrazolium salt MTS combined with the electron acceptor PMS in a 96-well format. Six doses of each compound was tested, starting at about 1.2 μM to 0.4 μM serially diluted in a final 1% DMSO solution in DMEM/F12 media. Terfenadine was used as a positive control. Cells were seeded at 2.5×10^5 cells/mL in each well of the 96-well plates in a final volume of 0.1 mL, and then incubated at 37° C. in the presence of 5% CO2 overnight. Compounds (in media) were added the following day and the treated cells were incubated another 3-days at 37° C. in the presence of 5% CO2. After the 3-day incubation, 20 μL of MTS/PMS (3-(4,5-dimethylthiazol-2-yl)-5-(3-carboxymethoxy-phenyl)-2-(4-sulfophenyl)-2H-tetrazolium) was added to each well. After about a one to four hour incubation of MTS/PMS at 37° C. and 5% CO2—that is, until an OD490 absorbance of ≧0.6 for the wells containing cells with media only, the level of cytotoxicity at each concentration was calculated. […] Dose response results from the cytotoxicity assay (CC50) are provided in Table 4 in comparison with IC50 data (from Table 2)

[3] = system: SNB-75; assay: NCI In Vitro Cell Line Screening (SRB); type: cell-based, human; conditions: SNB-75, CNS Cancer, 48 h; for GI50 / CC50: Homo sapiens; for CC50: read-out: LC50 (the source's name)
[4] = system: U251; assay: NCI In Vitro Cell Line Screening (SRB); type: cell-based, human; conditions: U251, CNS Cancer, 48 h; for GI50 / CC50: Homo sapiens, U-251; for CC50: read-out: LC50 (the source's name)
[5] = system: DU-145; assay: NCI In Vitro Cell Line Screening (SRB); type: cell-based, human; conditions: DU-145, Prostate Cancer, 48 h; for GI50 / CC50: Homo sapiens; for CC50: read-out: LC50 (the source's name)
[6] = system: HS 578T; assay: NCI In Vitro Cell Line Screening (SRB); type: cell-based, human; conditions: Breast Cancer, 48 h; for GI50 / CC50: Homo sapiens; for CC50: read-out: LC50 (the source's name)
[7] = system: CAKI-1; assay: NCI In Vitro Cell Line Screening (SRB); type: cell-based, human; conditions: CAKI-1, Renal Cancer, 48 h; for GI50 / CC50: Homo sapiens; for CC50: read-out: LC50 (the source's name)
[8] = system: NCI-H23; assay: NCI In Vitro Cell Line Screening (SRB); type: cell-based; conditions: NCI-H23, Non-Small Cell Lung Cancer, 48 h
[9] = system: OVCAR-5; assay: NCI In Vitro Cell Line Screening (SRB); type: cell-based, human; conditions: OVCAR-5, Ovarian Cancer, 48 h; for GI50 / CC50: Homo sapiens; for CC50: read-out: LC50 (the source's name)
[10] = system: EKVX; assay: NCI In Vitro Cell Line Screening (SRB); type: cell-based, human; conditions: Non-Small Cell Lung Cancer, 48 h; for GI50 / LC50: Homo sapiens
[11] = system: 786-0; assay: NCI In Vitro Cell Line Screening (SRB); type: cell-based, human; conditions: 786-0, Renal Cancer, 48 h; for GI50 / CC50: Homo sapiens; for CC50: read-out: LC50 (the source's name)

Row | SMILES | IC50 [1] [µM] | CC50 at 3 days [2] [µM] | GI50 [3] [µM] | CC50 [3] [µM] | TGI [3] [µM] | GI50 [4] [µM] | CC50 [4] [µM] | TGI [4] [µM] | TGI [5] [µM] | GI50 [5] [µM] | CC50 [5] [µM] | TGI [6] [µM] | GI50 [6] [µM] | CC50 [6] [µM] | inhibition at 10 µM [1] [%] | TGI [7] [µM] | GI50 [7] [µM] | CC50 [7] [µM] | LC50 (concentration giving 50% net cell kill) ([8]; Homo sapiens) [µM] | TGI [8] [µM] | also measured
1 | Cc1ccc(NC(=O)[C@H](CCCCN)NC(=O)Nc2ccc(OCc3ccccc3)cc2)cc1 [Compound 2, (S)-6-AMINO-2-[3-(4-BENZYLOXY-PHENYL)-UREIDO]-HEXANOIC ACID P-TOLYLAMIDE] | 13 | 22.2 | – | – | – | – | – | – | – | – | – | – | – | – | – | – | – | – | – | – | –
2 | CC(C)(C)c1ccc(NC(=O)[C@H](CCCCN)NC(=O)OCC2c3ccccc3-c3ccccc32)cc1 [Compound 105, (S)-[5-AMINO-1-(4-TERT-BUTYL-PHENYLCARBAMOYL)-PENTYL]-CARBAMIC ACID 9H-FLUOREN-9-YLMETHYL ESTER] | – | – | 1.29 | 5.97 | 2.78 | 4.74 | 48.3 | 17.3 | 31.2 | 15.8 | 61.6 | 16.7 | 2.93 | 48.7 | 100 | 43.9 | 19.8 | 97.2 | 5.47 | 1.95 | GI50 [9]: 1.85 µM; CC50 [9]: 6.5 µM; TGI [9]: 3.46 µM; GI50 [10]: 21 µM; LC50 [10]: 90 µM; TGI [10]: 43.5 µM; TGI [11]: 2.66 µM; GI50 [11]: 1.33 µM; CC50 [11]: 5.3 µM
3 | Cc1ccc(NC(=O)[C@@H](CCCCN)NC(=O)Nc2ccc3c(c2)Cc2ccccc2-3)cc1 [Compound 173, (R)-6-AMINO-2-[3-(9H-FLUOREN-2-YL)-UREIDO]-HEXANOIC ACID P-TOLYLAMIDE] | – | – | 1.61 | > 100 | 4.65 | 1.49 | 5.3 | 2.80 | 20.0 | 6.94 | 46.3 | 4.77 | 1.64 | 32.7 | 99 | 34.0 | 0.135 | > 100 | > 100 | 19.6 | GI50 ([8]; Homo sapiens): 3.45 µM; GI50 [9]: 1.92 µM; CC50 [9]: 6.57 µM; TGI [9]: 3.55 µM; GI50 [10]: 1.19 µM; LC50 [10]: > 100 µM; TGI [10]: 46.2 µM; TGI [11]: 11.1 µM; GI50 [11]: 3.42 µM; CC50 [11]: 91.1 µM
4 | COC(=O)c1ccc(COc2ccc(NC(=O)N[C@@H](CCCCN)C(=O)Nc3ccc(C)cc3)cc2)cc1 [Compound 199, (S)-4-{4-[3-(5-AMINO-1-P-TOLYLCARBAMOYL-PENTYL)-UREIDO]-PHENOXYMETHYL}-BENZOIC ACID METHYL ESTER] | 7.9 | 53 | – | – | – | – | – | – | – | – | – | – | – | – | 39.7 | – | – | – | – | – | –
5 | Cc1cc2cc(NC(=O)[C@H](CCCNC(=O)CN)NC(=O)Nc3ccc4c(c3)Cc3ccccc3-4)ccc2[nH]1 [Compound 297, (S)-5-(2-AMINO-ACETYLAMINO)-2-[3-(9H-FLUOREN-2-YL)-UREIDO]-PENTANOIC ACID (2-METHYL-1H-INDOL-5-YL)-AMIDE] | 26 | 9.9 | – | – | – | – | – | – | – | – | – | – | – | – | 16.5 | – | – | – | – | – | –
